This assay deals with Human bone marrow CD34+ cells. As to the kind of experiment: Megakaryocyte colony stimulating activity (megakaryocyte colony forming method). The class given is cell-based. The conditions noted are these: 11 days. The method, then:
The action of the compounds of Synthetic Examples 1 to 43 of the present invention and Reference Synthetic Examples 29 and 30 on the proliferation, differentiation and maturation of megakaryocyte cells was measured by the megakaryocyte colony forming method using human bone marrow cells. Human bone marrow CD34^+ cells (Cambrex Bio Science Walkersville) were incubated on 2-well chamber slide for 11 days in a CO2 incubator (5% CO2, 37° C.) using MegaCult™-C (StemCell Technologies) containing 0.1% (v/v) of the compounds of Synthetic Examples dissolved in dimethyl sulfoxide. After dehydration and fixation, the cells were stained with an anti-glycoprotein IIb/IIIa antibody in accordance with the instruction by the manufacturer. The colonies consisting of at least 8 stained megakaryocyte cells in each well were counted under a microscope. The megakaryocyte colony counts in at least 2 wells were averaged.

`C/C(=N\NC(=O)c1ccc(C(=O)O)cc1)c1csc(-c2ccc(Cl)c(Cl)c2)c1O` [Reference Synthetic Ex. 29, reference compound]: the Megakaryocyte colony count worked out at 2 (drug concentration 0.1 μg/mL) and 31 (drug concentration 1 μg/mL).

For the compound `C/C(=N\NC(=O)c1ccc(C(=O)O)s1)c1csc(-c2ccc(Cl)c(Cl)c2)c1O` [Reference Synthetic Ex. 30, reference compound], the Megakaryocyte colony count is reported as 12 (drug concentration 0.1 μg/mL), 34 (drug concentration 0.3 μg/mL) and 87 (drug concentration 1 μg/mL).

For the setting “drug concentration 1 μg/mL”, `CC(=NNC(=O)c1ccc(C(=O)N2CCN(C(C)C)CC2)s1)c1csc(-c2ccc(Cl)c(Cl)c2)c1O` [Synthetic Ex. 1, 5-(4-isopropylpiperazine-1-carbonyl)thiophene-2-carboxylic acid {1-[5-(3,4-dichlorophenyl)-4-hydroxythiophen-3-yl]ethylidene}hydrazide] displayed a Megakaryocyte colony count of 154.

`CC(=NNC(=O)c1ccc(C(=O)N2CCOCC2)s1)c1csc(-c2ccc(Cl)c(Cl)c2)c1O.[K]` [Synthetic Ex. 2, 5-(morpholine-4-carbonyl)thiophene-2-carboxylic acid {1-[5-(3,4-dichlorophenyl)-4-hydroxythiophen-3-yl]ethylidene}hydrazide potassium salt] came in with a Megakaryocyte colony count (drug concentration 1 μg/mL) of 239.

`CCN(CC)C(=O)c1ccc(C(=O)NN=C(C)c2csc(-c3ccc(Cl)c(Cl)c3)c2O)s1.[K]` [Synthetic Ex. 3, 5-{1-[5-(3,4-dichlorophenyl)-4-hydroxythiophen-3-yl]ethylidenehydrazinocarbonyl}thiophene-2-carboxylic acid diethylamide potassium salt] displayed a Megakaryocyte colony count (drug concentration 1 μg/mL) of 348.

With `CC(=NNC(=O)c1ccc(C(=O)N2CCCC2)s1)c1csc(-c2ccc(Cl)c(Cl)c2)c1O.[K]` [Synthetic Ex. 4, 5-(pyrrolidine-1-carbonyl)thiophene-2-carboxylic acid {1-[5-(3,4-dichlorophenyl)-4-hydroxythiophen-3-yl]ethylidene}hydrazide potassium salt], the Megakaryocyte colony count (drug concentration 0.1 μg/mL) is given as 84 and the Megakaryocyte colony count (drug concentration 1 μg/mL) was found to be 148.

As for `CC(=NNC(=O)c1ccc(C(=O)N(C)C)s1)c1csc(-c2ccc(Cl)c(Cl)c2)c1O.[K]` [Synthetic Ex. 5, 5-{1-[5-(3,4-dichlorophenyl)-4-hydroxythiophen-3-yl]ethylidenehydrazinocarbonyl}thiophene-2-carboxylic acid dimethylamide potassium salt], the Megakaryocyte colony count (drug concentration 1 μg/mL) is recorded as 274.

As for `COCCNC(=O)c1ccc(C(=O)NN=C(C)c2csc(-c3ccc(Cl)c(Cl)c3)c2O)s1.[K]` [Synthetic Ex. 6, 5-{1-[5-(3,4-dichlorophenyl)-4-hydroxythiophen-3-yl]ethylidenehydrazinocarbonyl}thiophene-2-carboxylic acid 2-methoxyethylamide potassium salt], the Megakaryocyte colony count by setting is: (drug concentration 0.1 μg/mL) 115; (drug concentration 1 μg/mL) 151.

For `CCN(CC)C(=O)c1ccc(C(=O)NN=C(C)c2csc(-c3ccc(C(F)(F)F)cc3)c2O)s1` [Synthetic Ex. 8, 5-{1-[5-(4-trifluoromethylphenyl)-4-hydroxythiophen-3-yl]ethylidenehydrazinocarbonyl}thiophene-2-carboxylic acid diethylamide], the Megakaryocyte colony count runs as follows: (drug concentration 0.1 μg/mL) 147; (drug concentration 1 μg/mL) 227.

Regarding `CC(=NNC(=O)c1ccc(C(=O)N2CCCC2)s1)c1csc(-c2ccc(C(F)(F)F)cc2)c1O.[K]` [Synthetic Ex. 10, 5-(pyrrolidine-1-carbonyl)thiophene-2-carboxylic acid {1-[5-(4-trifluoromethylphenyl)-4-hydroxythiophen-3-yl]ethylidene}hydrazide potassium salt], the Megakaryocyte colony count (drug concentration 0.1 μg/mL) is on record as 105 and the Megakaryocyte colony count (drug concentration 1 μg/mL) came out at 208.

On to `CC(=NNC(=O)c1ccc(C(=O)N(C)Cc2ccccn2)s1)c1csc(-c2ccc(C(F)(F)F)cc2)c1O.[K]` [Synthetic Ex. 13, 5-{1-[5-(4-trifluoromethylphenyl)-4-hydroxythiophen-3-yl]ethylidenehydrazinocarbonyl}thiophene-2-carboxylic acid methyl-2-picolylamide potassium salt], for which the Megakaryocyte colony count (drug concentration 0.1 μg/mL) stood at 61.

Compound `CC(=NNC(=O)c1ccc(C(=O)NCc2cccnc2)s1)c1csc(-c2ccc(Br)cc2)c1O` [Synthetic Ex. 17, 5-{1-[5-(4-bromophenyl)-4-hydroxythiophen-3-yl]ethylidenehydrazinocarbonyl}thiophene-2-carboxylic acid 3-picolylamide] yielded a Megakaryocyte colony count (drug concentration 1 μg/mL) of 146.

With `CC(=NNC(=O)c1ccc(C(=O)NCc2ccncc2)s1)c1csc(-c2ccc(Br)cc2)c1O` [Synthetic Ex. 18, 5-{1-[5-(4-bromophenyl)-4-hydroxythiophen-3-yl]ethylidenehydrazinocarbonyl]thiophene-2-carboxylic acid 4-picolylamide], for the setting “drug concentration 1 μg/mL”, the Megakaryocyte colony count was 125.

As to `CC(=NNC(=O)c1ccc(C(=O)NCc2ccco2)s1)c1csc(-c2ccc(Br)cc2)c1O` [Synthetic Ex. 19, 5-{1-[5-(4-bromophenyl)-4-hydroxythiophen-3-yl]ethylidenehydrazinocarbonyl}thiophene-2-carboxylic acid furan-2-ylmethylamide], the Megakaryocyte colony count (drug concentration 1 μg/mL) was 171.

Consider `CNC(=O)c1ccc(C(=O)NN=C(C)c2csc(-c3ccc(Br)cc3)c2O)s1` [Synthetic Ex. 20, 5-{1-[5-(4-bromophenyl)-4-hydroxythiophen-3-yl]ethylidenehydrazinocarbonyl}thiophene-2-carboxylic acid methylamide], for which the Megakaryocyte colony count (drug concentration 1 μg/mL) was 185.

As to `CC(=NNC(=O)c1ccc(C(=O)NC(C)C)s1)c1csc(-c2ccc(Br)cc2)c1O` [Synthetic Ex. 21, 5-{1-[5-(4-bromophenyl)-4-hydroxythiophen-3-yl]ethylidenehydrazinocarbonyl}thiophene-2-carboxylic acid isopropylamide], the Megakaryocyte colony count (drug concentration 0.1 μg/mL) stood at 85.

`C/C(=N\NC(=O)c1ccc(C(=O)NCc2ccccn2)s1)c1csc(-c2ccc(OC(F)(F)F)cc2)c1O` [Synthetic Ex. 22] showed a Megakaryocyte colony count (drug concentration 0.1 μg/mL) of 96.

For `CC(=NNC(=O)c1ccc(C(=O)NC(C)C)s1)c1csc(-c2ccc(C(F)(F)F)cc2)c1O` [Synthetic Ex. 23, 5-{1-[5-(4-trifluoromethylphenyl)-4-hydroxythiophen-3-yl]ethylidenehydrazinocarbonyl}thiophene-2-carboxylic acid isopropylamide], under “drug concentration 1 μg/mL”, the Megakaryocyte colony count came to 134.

`C/C(=N\NC(=O)c1ccc(C(=O)NCc2ccncc2)s1)c1csc(-c2ccc(Cl)cc2)c1O` [Synthetic Ex. 24, 5-{1-5-[(4-chlorophenyl)-4-hydroxythiophen-3-yl]ethylidenehydrazinocarbonyl}thiophene-2-carboxylic acid 4-picolylamide] yielded a Megakaryocyte colony count (drug concentration 1 μg/mL) of 164.

Under “drug concentration 1 μg/mL”, `CC(=NNC(=O)c1ccc(C(=O)NCc2ccccn2)s1)c1csc(-c2ccc(Cl)cc2)c1O` [Synthetic Ex. 25, 5-{1-[5-(4-chlorophenyl)-4-hydroxythiophen-3-yl]ethylidenehydrazinocarbonyl]thiophene-2-carboxylic acid 2-picolylamide] returned a Megakaryocyte colony count of 118.

On to `CC(=NNC(=O)c1ccc(C(=O)NCc2cccnc2)s1)c1csc(-c2ccc(Cl)cc2)c1O` [Synthetic Ex. 26, 5-{1-[5-(4-chlorophenyl)-4-hydroxythiophen-3-yl]ethylidenehydrazinocarbonyl}thiophene-2-carboxylic acid 3-picolylamide], for which the Megakaryocyte colony count (drug concentration 1 μg/mL) turned out to be 182.

In turn, `CNC(=O)c1ccc(C(=O)NN=C(C)c2csc(-c3ccc(Cl)cc3)c2O)s1` [Synthetic Ex. 27, 5-{1-[5-(4-chlorophenyl)-4-hydroxythiophen-3-yl]ethylidenehydrazinocarbonyl}thiophene-2-carboxylic acid methylamide] showed a Megakaryocyte colony count (drug concentration 1 μg/mL) of 201.

`CC(=NNC(=O)c1ccc(C(=O)NC(C)C)s1)c1csc(-c2ccc(C)c(C)c2)c1O` [Synthetic Ex. 28, 5-{1-[5-(3,4-dimethylphenyl)-4-hydroxythiophen-3-yl]ethylidenehydrazinocarbonyl]thiophene-2-carboxylic acid isopropylamide] yielded a Megakaryocyte colony count (drug concentration 1 μg/mL) of 105.

`CC(=NNC(=O)c1ccc(C(=O)NCc2ccccn2)s1)c1csc(-c2ccc(Cl)c(Cl)c2)c1O` [Synthetic Ex. 29, 5-{1-[5-(3,4-dichlorophenyl)-4-hydroxythiophen-3-yl]ethylidenehydrazinocarbonyl}thiophene-2-carboxylic acid 2-picolylamide] displayed a Megakaryocyte colony count (drug concentration 0.1 μg/mL) of 62.

In turn, `CC(=NNC(=O)c1ccc(C(=O)NCc2ccncc2)s1)c1csc(-c2ccc(Cl)c(Cl)c2)c1O` [Synthetic Ex. 30, 5-{1-[5-(3,4-dichlorophenyl)-4-hydroxythiophen-3-yl]ethylidenehydrazinocarbonyl}thiophene-2-carboxylic acid 4-picolylamide] displayed a Megakaryocyte colony count (drug concentration 0.1 μg/mL) of 145 and a Megakaryocyte colony count (drug concentration 1 μg/mL) of 271.

With `CC(=NNC(=O)c1ccc(C(=O)NCCc2ccncc2)s1)c1csc(-c2ccc(Cl)c(Cl)c2)c1O` [Synthetic Ex. 31, 5-{1-[5-(3,4-dichlorophenyl)-4-hydroxythiophen-3-yl]ethylidenehydrazinocarbonyl}thiophene-2-carboxylic acid 2-(pyridin-4-yl)ethylamide], the Megakaryocyte colony count reads like this: (drug concentration 0.1 μg/mL) 70; (drug concentration 1 μg/mL) 136.

For the origin of these results see patent US7968542B2, “Thiophene compounds and thrombopoietin receptor activators” (Nissan Chemical Industries, Ltd., priority 2005, dated 2011).
